This is an account of results in patent US8980909B2, “HDAC inhibiting derivatives of camptothecin” (Crystal Biopharmaceutical LLC, priority 2011, dated 2015).

For one data set, the system named is T-47D. The data set can be described thus: In vitro anti-proliferation assay (ATPlite), T-47D. In kind it is cell-based. As to conditions: for IC50: Homo sapiens, T47D, Breast Cancer, T-47D, 72 hours. Here is the method: (§1) Cell antiproliferation was assayed by PerkinElmer ATPlite™ Luminescence Assay System. The cancer cell lines were plated at 10 k cells per well in Costar 96-well plates with different concentration of compounds for 72 hours with […]. After that, one lyophilized substrate solution vial was reconstituted by adding 5 mL of substrate buffer solution and was agitated gently until the solution is homogeneous. 50 μL of mammalian cell lysis solution was added to 100 μL of cell suspension per well of a microplate and the plate was shaken for five minutes in an orbital shaker at 700 rpm. This procedure will lyses the cells and stabilizes the ATP. Next, 50 μL substrate solution was added to the wells and microplate was shaken for five minutes in an orbital shaker at 700 rpm. Finally, the luminescence was measured by a PerkinElmer TopCount® Microplate Scintillation Counter. Such assays, carried out with a range of doses of test compounds, allow the determination of the cellular anti-antiproliferative IC50 of the compounds of the present invention.
(§2) The cellular antiproliferative assay were conducted side-by-side for Irinotecan (a FDA approved semisynthetic Camptothecin), and CY-700 (the first-in-class dual-functional semisynthetic Camptothecin/HDAC inhibitor), in 53 different cancer cell lines of breast cancer, renal cancer, non-small cell lung cancer, colon cancer, leukemia, multiple myeloma, ovarian cancer, prostate cancer, melanoma, and CNS cancer.

In the next data set the test system is SNB-19. The data set can be described thus: In vitro anti-proliferation assay (ATPlite), SNB-19. As to conditions: for IC50: Homo sapiens, CNS Cancer, SNB-19, 72 hours. It is filed as cell-based. The method, then:
as §1, §2
A general note: Cellular ATP, detected with luciferase, serves as a proxy for viable cell number.

For a further data set, the system named is SF-268. The data set can be described thus: In vitro anti-proliferation assay (ATPlite), SF-268. It is filed as cell-based. The note with it: for IC50: Homo sapiens, CNS Cancer, SF-268, 72 hours. Here is the method:
as §1, §2

The subject of a further data set is MCF7. The data set can be described thus: In vitro anti-proliferation assay (ATPlite), MCF7. As to conditions: for IC50: Homo sapiens, Breast Cancer, MCF7, 72 hours. It is filed as cell-based. The method, then: as §1, §2
In a further data set the test system is RXF 393. The experiment in a line: In vitro anti-proliferation assay (ATPlite), RXF 393. It is filed as cell-based. The note with it: for IC50: Homo sapiens, Renal Cancer, RXF 393, 72 hours. Here is the method:
as §1, §2

Another data set addresses HDAC-1 (Homo sapiens, UniProt Q13547). The experiment in a line: Inhibition of histone deacetylase enzymatic activity (Fluor-de-Lys), HDAC-1. In kind it is biochemical. The note with it: HDAC subtype HDAC-1. Here is the method:
The following assay protocol was used to assay the compounds of the invention against the HDAC enzymes (HDAC-1, 2, 3, 4, 5, 6, 7, 8, 9, 10, and 11.). […] The enzyme stock solution was 4 μg/mL in buffer. The compounds were pre-incubated (2 μl in DMSO diluted to […] in buffer for transfer to assay plate) with enzyme (20 μl of 4 μg/ml) for 10 minutes at room temperature (35 μl pre-incubation volume). The mixture was pre-incubated for 5 minutes at room temperature. The reaction was started by bringing the temperature to 37° C. and adding 15 μl substrate. Total reaction volume was 50 μl. […] Such assays, carried out with a range of doses of test compounds, allowed the determination of an approximate IC50 value.

Another data set concerns LOX IMVI. The experiment in a line: In vitro anti-proliferation assay (ATPlite), LOX IMVI. In kind it is cell-based. The note with it: for IC50: Homo sapiens, Melanoma, LOX IMVI, 72 hours. The method, then: as §1, §2
The subject of a further data set is CAKI-1. The experiment in a line: In vitro anti-proliferation assay (ATPlite), CAKI-1. In kind it is cell-based. As to conditions: for IC50: Homo sapiens, Renal Cancer, CAKI-1, 72 hours. The method, then:
as §1, §2

For another data set, the system named is SNB-75. The experiment in a line: In vitro anti-proliferation assay (ATPlite), SNB-75. As to conditions: for IC50: Homo sapiens, CNS Cancer, SNB-75, 72 hours. In kind it is cell-based. Here is the method: as §1, §2
For another data set, the system named is BT-549. The experiment in a line: In vitro anti-proliferation assay (ATPlite), BT-549. The note with it: for IC50: Homo sapiens, Breast Cancer, BT-549, 72 hours. In kind it is cell-based. Here is the method:
as §1, §2

A further data set concerns SF-539. The data set can be described thus: In vitro anti-proliferation assay (ATPlite), SF-539. It is filed as cell-based. As to conditions: for IC50: Homo sapiens, CNS Cancer, SF-539, 72 hours. The method, then:
as §1, §2

The test system of the next data set is SK-MEL-5. The experiment in a line: In vitro anti-proliferation assay (ATPlite), SK-MEL-5. The note with it: for IC50: Homo sapiens, Melanoma, SK-MEL-5, 72 hours. In kind it is cell-based. Here is the method: as §1, §2
In another data set the test system is CCRF-CEM. The data set can be described thus: In vitro anti-proliferation assay (ATPlite), CCRF-CEM. It is filed as cell-based. The note with it: for IC50: Homo sapiens, Leukemia, CCRF-CEM, 72 hours. Here is the method: as §1, §2
Another data set concerns U251. The data set can be described thus: In vitro anti-proliferation assay (ATPlite), U251. In kind it is cell-based. As to conditions: for IC50: Homo sapiens, U-251, CNS Cancer, U251, 72 hours. Here is the method: as §1, §2
For the next data set, the system named is NCI-H226. The experiment in a line: In vitro anti-proliferation assay (ATPlite), NCI-H226. It is filed as cell-based. The note with it: for IC50: Homo sapiens, NSCLC, NCI-H226, 72 hours. The method, then:
as §1, §2

A further data set concerns OVCAR-8. The data set can be described thus: In vitro anti-proliferation assay (ATPlite), OVCAR-8. The note with it: for IC50: Homo sapiens, Ovarian Cancer, OVCAR-8, 72 hours. In kind it is cell-based. The method, then: as §1, §2
The subject of data set [1] is 53 different cancer cell lines. The data set can be described thus: In vitro anti-proliferation assay (ATPlite), panel of 53 cancer cell lines. In kind it is cell-based. As to conditions: among 53 cancer cell lines, side-by-side with Irinotecan. The method, then: as §1, with “invention. […]” for “invention.”
In the next data set the test system is NCI/ADR-RES. The data set can be described thus: In vitro anti-proliferation assay (ATPlite), NCI/ADR-RES. In kind it is cell-based. The note with it: for IC50: Homo sapiens, Ovarian Cancer, NCI/ADR-RES, 72 hours. The method, then:
as §1, §2

Data set [2] is described as follows: In vitro activities (comparison in words, test not specified).
A short description of data set [3]: Solubility (comparison in words). In kind it is physicochemical.

The structures appear in SMILES notation.

HDAC-1, sequence (Q13547 whole entry): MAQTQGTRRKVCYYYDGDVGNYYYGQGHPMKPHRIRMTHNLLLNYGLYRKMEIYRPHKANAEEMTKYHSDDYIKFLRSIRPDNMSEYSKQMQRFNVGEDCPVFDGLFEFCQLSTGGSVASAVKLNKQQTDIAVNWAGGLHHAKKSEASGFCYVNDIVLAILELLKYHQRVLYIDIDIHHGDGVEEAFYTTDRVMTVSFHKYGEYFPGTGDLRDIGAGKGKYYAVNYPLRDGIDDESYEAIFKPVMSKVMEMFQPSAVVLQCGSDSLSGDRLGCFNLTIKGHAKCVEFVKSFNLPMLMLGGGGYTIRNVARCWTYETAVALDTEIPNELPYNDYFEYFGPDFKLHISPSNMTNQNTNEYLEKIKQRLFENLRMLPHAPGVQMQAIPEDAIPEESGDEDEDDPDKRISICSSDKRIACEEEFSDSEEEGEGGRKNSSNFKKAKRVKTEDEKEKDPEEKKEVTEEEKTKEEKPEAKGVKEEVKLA

`CCc1c2c(nc3ccc(OCCCCCCC(=O)NO)cc13)-c1cc3c(c(=O)n1C2)COC(=O)[C@]3(O)CC` [CY-700]: the IC50 (in general, the concentration that inhibits the measured activity by half) was 2.1 µM in the data set on T-47D; 1.1 µM with SNB-19; 0.5 µM with SF-268; 0.5 µM with MCF7; 2.3 µM with RXF 393; 0.019 µM against HDAC-1 (Fluor-de-Lys substrate, approximate IC50). Besides, the IC50 with LOX IMVI is 0.7 µM; in the data set with CAKI-1, 0.7 µM; in the data set with SNB-75 it was 2.3 µM; in the data set on BT-549, 2.6 µM; in the data set with SF-539 it was 0.6 µM; with SK-MEL-5, 1.3 µM. Also, the IC50 worked out at 0.4 µM with CCRF-CEM; 0.7 µM with U251; 1.2 µM in the data set on NCI-H226; 2.7 µM in the data set on OVCAR-8; 5.1 µM in the data set with NCI/ADR-RES. Besides, the Ratio with T-47D (Irinotecan IC50 / CY-700 IC50, T-47D) turned out to be 11.7; with SNB-19 (Irinotecan IC50 / CY-700 IC50, SNB-19), 22.0; with SF-268 (Irinotecan IC50 / CY-700 IC50, SF-268), 7.4; in the data set with MCF7 (Irinotecan IC50 / CY-700 IC50, MCF7), 12.1; in the data set on RXF 393 (Irinotecan IC50 / CY-700 IC50, RXF 393) it was 14.7; in the data set on LOX IMVI (Irinotecan IC50 / CY-700 IC50, LOX IMVI) it was 5.2. Also, the Ratio was 15.3 with CAKI-1 (Irinotecan IC50 / CY-700 IC50, CAKI-1); 6.9 with SNB-75 (Irinotecan IC50 / CY-700 IC50, SNB-75); 7.0 in the data set with BT-549 (Irinotecan IC50 / CY-700 IC50, BT-549); 8.9 in the data set with SF-539 (Irinotecan IC50 / CY-700 IC50, SF-539); 8.6 in the data set with SK-MEL-5 (Irinotecan IC50 / CY-700 IC50, SK-MEL-5); 9.7 in the data set with CCRF-CEM (Irinotecan IC50 / CY-700 IC50, CCRF-CEM). In addition, the Ratio in the data set with U251 (Irinotecan IC50 / CY-700 IC50, U251) is reported as 5.5; in the data set with NCI-H226 (Irinotecan IC50 / CY-700 IC50, NCI-H226) it was 7.2; in the data set on OVCAR-8 (Irinotecan IC50 / CY-700 IC50, OVCAR-8), 6.4; in the data set on NCI/ADR-RES (Irinotecan IC50 / CY-700 IC50, NCI/ADR-RES), 8.2. Moreover, the “number of cancer cell lines with better in vitro potency than Irinotecan” value in [1] is recorded as 47.
Turning to `CC[C@@]1(O)C(=O)OCc2c1cc1n(c2=O)Cc2cc3c(CN(C)C)c(OC(=O)N4CCN(c5ncc(C(=O)NO)cn5)CC4)ccc3nc2-1` [CY-705], the “in vitro activities as compared to CY-700” value in data set [2] is on record as “comparable in vitro activities”. In addition, in data set [3], the “solubility as compared to CY-700” value is “significantly better solubility”.
As for `CCc1c2c(nc3ccc(OC(=O)N4CCC(N5CCCCC5)CC4)cc13)-c1cc3c(c(=O)n1C2)COC(=O)[C@]3(O)CC` [Irinotecan, reference compound], the IC50 in the data set with T-47D worked out at 24.4 µM; in the data set with SNB-19, 24.1 µM; with SF-268, 3.9 µM; in the data set with MCF7 it was 6.1 µM; with RXF 393 it was 33.6 µM; in the data set with LOX IMVI it was 3.5 µM. The IC50 in the data set on CAKI-1 turned out to be 10.1 µM; with SNB-75 it was 15.9 µM; with BT-549, 18.5 µM; in the data set on SF-539, 5 µM; in the data set on SK-MEL-5, 11.4 µM; in the data set on CCRF-CEM, 3.5 µM. Further, the IC50 with U251 amounted to 4.1 µM; in the data set with NCI-H226, 8.5 µM; with OVCAR-8 it was 17.2 µM; with NCI/ADR-RES it was 42.2 µM. For the same compound, the “HDAC-1 IC50 (result in words)” value on HDAC-1 (unit not given) is “No activity”.
